# Data published in patent publication EP0043274A2, “Antithrombotic treatment” (priority 1980, dated 1982).
# “And” between values parts separate entries of the source, which are not always exact repeats. Equal entries are not always repeated.
# Legend:
# [1] = system: platelet thrombus formation on damaged aortic wall; assay: Indium 111 platelet labeling technique in rabbits (platelet accumulation at vessel wall); type: in vivo
# Procedure: In medicine, for example, arterial thrombosis is diagnosable by clinical manifestations, by arteriography, and recently, by an Indium 111 platelet labeling technique (see, for example, the article entitled "Differential , Effects of Two Doses of Aspirin on Platelet-Vessel Wall Interaction In Vivo" by K.K. Wu et al being published in the Journal of Clinical Investigtion, August, 1981).
# Sodium bisulfite is evaluated under in vivo conditions as an antithrombotic agent using the anti-indium 111 platelet labeling technique in rabbits (see the Wu et al article above cited). The material was administered by intravenous injection (72.80 milligram per kilogram of animal body weight). […]
# FIBRINOGEN = target: T1, FIBRINOGEN (Homo sapiens, UniProt P02671+P02675+P02679); assay: Coagulation factor assay (Biggs): fibrinogen; type: biochemical; conditions: for FIBRINOGEN (mg%): U.S.P. grade, control 218
# T1 construct: from tissue; host or cells: human plasma
# T1 sequence (P02671 20-629 limits assumed): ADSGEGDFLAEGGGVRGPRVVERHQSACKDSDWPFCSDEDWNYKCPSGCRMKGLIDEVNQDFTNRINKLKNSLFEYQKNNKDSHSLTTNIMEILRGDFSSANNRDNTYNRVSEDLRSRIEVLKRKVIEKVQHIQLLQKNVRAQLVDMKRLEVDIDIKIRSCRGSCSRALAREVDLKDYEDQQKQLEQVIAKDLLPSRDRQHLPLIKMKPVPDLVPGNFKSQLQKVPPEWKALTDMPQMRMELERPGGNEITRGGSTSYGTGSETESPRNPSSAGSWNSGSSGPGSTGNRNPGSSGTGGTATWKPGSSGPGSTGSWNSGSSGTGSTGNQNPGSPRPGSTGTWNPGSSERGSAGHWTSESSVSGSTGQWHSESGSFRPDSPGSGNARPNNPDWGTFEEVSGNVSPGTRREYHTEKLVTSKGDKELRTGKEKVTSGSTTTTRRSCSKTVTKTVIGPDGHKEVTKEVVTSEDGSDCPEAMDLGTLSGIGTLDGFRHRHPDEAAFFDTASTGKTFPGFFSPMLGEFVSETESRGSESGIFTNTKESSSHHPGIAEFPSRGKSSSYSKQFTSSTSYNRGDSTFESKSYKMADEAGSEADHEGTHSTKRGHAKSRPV
# T1 sequence (P02675 31-491): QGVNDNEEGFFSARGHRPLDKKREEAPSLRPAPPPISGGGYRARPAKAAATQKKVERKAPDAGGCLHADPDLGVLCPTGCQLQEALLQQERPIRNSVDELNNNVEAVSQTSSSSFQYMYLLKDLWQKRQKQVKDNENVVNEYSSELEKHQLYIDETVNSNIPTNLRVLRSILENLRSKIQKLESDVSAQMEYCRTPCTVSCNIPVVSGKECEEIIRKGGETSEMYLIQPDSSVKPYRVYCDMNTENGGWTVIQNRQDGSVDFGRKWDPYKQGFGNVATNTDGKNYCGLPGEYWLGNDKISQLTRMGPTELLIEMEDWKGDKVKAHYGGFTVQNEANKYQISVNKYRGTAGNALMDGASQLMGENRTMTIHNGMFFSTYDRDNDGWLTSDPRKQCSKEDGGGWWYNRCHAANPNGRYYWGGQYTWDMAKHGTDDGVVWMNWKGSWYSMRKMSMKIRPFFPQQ
# T1 sequence (P02679 27-453): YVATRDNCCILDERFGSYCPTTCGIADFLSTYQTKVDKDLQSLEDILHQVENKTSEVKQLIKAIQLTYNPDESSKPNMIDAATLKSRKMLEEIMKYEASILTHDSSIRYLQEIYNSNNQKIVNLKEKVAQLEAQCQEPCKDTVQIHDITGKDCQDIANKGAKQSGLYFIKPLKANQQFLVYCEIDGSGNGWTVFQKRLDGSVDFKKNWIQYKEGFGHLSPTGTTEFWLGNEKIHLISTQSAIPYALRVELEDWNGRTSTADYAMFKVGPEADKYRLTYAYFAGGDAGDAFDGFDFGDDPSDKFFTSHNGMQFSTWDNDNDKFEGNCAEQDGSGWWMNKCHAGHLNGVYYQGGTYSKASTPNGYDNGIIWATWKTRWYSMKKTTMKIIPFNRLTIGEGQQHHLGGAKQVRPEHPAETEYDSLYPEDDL
# Procedure: (§1) The effect of U.S.P. grade sodium bisulfite on blood coagulation factors is evaluated by standard procedures (Biggs) and the results are shown in Table III below.
# (§2) References for PT, PTT, and assays of all the coagulation factors can be found in a standard textbook, entitled "Human Blood Coagulation, Haemostasis and Thrombosis", edited by Rosemary Biggs, published by Blackwell Scientific Publications, Oxford, England (2nd edition), pages 670-705, 1976.
# PROTHROMBIN = target: T2, PROTHROMBIN (Homo sapiens, UniProt P00734); assay: Coagulation factor assay (Biggs): prothrombin (Factor II); type: biochemical; conditions: for PROTHROMBIN (%): U.S.P. grade, control 87
# T2 construct: from tissue; host or cells: human plasma
# Procedure: as §1, §2
# F VIII = target: T3, F VIII (Homo sapiens, UniProt P00451); assay: Coagulation factor assay (Biggs): Factor VIII; type: biochemical; conditions: for F VIII (%): U.S.P. grade, control 57
# T3 construct: from tissue; host or cells: human plasma
# T3 sequence (P00451 20-2351): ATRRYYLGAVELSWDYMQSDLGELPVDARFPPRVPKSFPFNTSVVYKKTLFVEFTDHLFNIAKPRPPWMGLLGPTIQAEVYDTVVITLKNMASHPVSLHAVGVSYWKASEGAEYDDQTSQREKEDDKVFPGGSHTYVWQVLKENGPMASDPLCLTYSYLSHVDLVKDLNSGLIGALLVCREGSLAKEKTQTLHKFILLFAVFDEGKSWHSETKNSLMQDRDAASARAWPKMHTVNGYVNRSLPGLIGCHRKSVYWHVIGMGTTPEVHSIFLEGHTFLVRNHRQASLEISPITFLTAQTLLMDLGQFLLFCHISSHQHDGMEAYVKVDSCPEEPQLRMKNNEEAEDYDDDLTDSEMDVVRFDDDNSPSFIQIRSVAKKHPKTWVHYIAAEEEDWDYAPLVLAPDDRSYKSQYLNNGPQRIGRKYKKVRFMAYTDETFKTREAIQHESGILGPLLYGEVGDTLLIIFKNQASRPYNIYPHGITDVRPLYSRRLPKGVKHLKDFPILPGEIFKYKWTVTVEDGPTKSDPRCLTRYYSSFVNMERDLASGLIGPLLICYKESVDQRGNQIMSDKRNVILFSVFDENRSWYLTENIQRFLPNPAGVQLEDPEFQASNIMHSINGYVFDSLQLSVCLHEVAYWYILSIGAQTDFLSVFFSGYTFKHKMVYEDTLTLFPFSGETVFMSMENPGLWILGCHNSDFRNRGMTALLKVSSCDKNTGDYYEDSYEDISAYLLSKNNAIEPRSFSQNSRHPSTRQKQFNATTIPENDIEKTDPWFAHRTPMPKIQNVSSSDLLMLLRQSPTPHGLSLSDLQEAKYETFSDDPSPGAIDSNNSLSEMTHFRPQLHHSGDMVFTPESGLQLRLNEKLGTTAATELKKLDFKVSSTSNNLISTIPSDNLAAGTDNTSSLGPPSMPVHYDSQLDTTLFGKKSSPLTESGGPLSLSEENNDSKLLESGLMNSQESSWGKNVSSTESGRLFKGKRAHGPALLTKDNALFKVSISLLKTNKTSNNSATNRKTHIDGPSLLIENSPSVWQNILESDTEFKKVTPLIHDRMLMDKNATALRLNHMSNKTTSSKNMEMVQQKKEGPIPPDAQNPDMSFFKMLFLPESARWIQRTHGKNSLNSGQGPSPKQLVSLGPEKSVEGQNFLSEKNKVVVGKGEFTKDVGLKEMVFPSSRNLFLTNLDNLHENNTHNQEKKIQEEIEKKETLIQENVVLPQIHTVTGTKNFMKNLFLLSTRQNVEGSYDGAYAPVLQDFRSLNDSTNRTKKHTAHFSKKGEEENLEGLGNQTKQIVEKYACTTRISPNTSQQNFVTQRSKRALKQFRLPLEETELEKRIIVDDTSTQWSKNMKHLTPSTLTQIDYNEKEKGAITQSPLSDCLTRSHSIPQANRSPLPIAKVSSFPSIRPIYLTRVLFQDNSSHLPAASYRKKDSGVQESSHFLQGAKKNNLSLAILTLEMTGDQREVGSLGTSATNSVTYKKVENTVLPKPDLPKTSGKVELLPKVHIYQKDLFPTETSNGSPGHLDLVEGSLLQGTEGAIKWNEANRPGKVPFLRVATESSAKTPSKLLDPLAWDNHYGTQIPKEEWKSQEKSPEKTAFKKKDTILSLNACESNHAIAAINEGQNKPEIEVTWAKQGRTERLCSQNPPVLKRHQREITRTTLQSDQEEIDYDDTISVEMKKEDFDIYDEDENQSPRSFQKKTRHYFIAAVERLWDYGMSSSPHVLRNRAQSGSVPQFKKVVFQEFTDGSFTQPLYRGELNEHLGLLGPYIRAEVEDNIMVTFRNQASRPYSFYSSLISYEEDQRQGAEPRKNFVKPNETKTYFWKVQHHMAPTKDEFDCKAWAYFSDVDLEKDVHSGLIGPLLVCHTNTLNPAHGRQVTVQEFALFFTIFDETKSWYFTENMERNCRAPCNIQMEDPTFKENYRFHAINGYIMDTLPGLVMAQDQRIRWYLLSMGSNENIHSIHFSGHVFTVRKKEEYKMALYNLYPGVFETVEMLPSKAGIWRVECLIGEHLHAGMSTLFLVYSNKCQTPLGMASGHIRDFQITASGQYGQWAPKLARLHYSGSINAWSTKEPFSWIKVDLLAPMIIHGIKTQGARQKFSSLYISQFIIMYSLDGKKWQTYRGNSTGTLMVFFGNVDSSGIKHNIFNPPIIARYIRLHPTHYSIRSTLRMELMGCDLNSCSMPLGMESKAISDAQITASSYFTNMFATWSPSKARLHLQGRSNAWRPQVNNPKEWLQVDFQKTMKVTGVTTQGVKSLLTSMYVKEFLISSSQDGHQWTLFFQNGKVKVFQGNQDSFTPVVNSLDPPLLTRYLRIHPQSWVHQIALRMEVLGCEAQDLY
# Procedure: as §1, §2
# rat plasma = assay: Blood coagulation tests (PT, PTT, coagulation factors) in vitro; type: biochemical
# Excerpt: The alkali metalbisulfites, sodium and potassium, and ammonium bisulfite are found to prolong PT and PTT in a dose-related fashion.
# [2] = Human use, oral drops with meals (case histories); type: in vivo
# Excerpt: To evaluate the effect of sodium bisulfite in human use (this agent being known to be safe for human consumption), certain patients received this agent. The case history and observations are summarized individually below.
# In each case, each patient is provided with such a bottle of Solution D, unless otherwise noted, and is instructed to dose himself (or herself, as the case may be) from the bottle so provided at the rate of seven drops to be taken orally with each of his (her) three daily meals. When the contents of one such bottle is thus so gradually consumed by an individual patient, another is provided to him (her).
# blood = assay: Storage of blood samples with added sodium bisulfite solution; design: species or system human; conditions: about 4 cc blood + about 10 drops of 10 weight percent solution; about 2 1/2 years at ambient temperatures
# Procedure: Samples of about 4 cc each of blood were prepared. To each of these was added about 10 drops of a solution 10 weight percent and sodium bisulfite in distilled water. Each sample was then sealed into a glass vial.
compound,measurement,setting,value
"CCN(CC)CC.O=S(O)O [TRIETHYL AMINE BISULFITE, triethyl amine bisulfite]",mortality of another rabbit so tested,[1]; intervenous injection 127.39 mg/kg,died
same,reduction in accumulation of platelet thrombus,"[1]; intervenous injection 127.39 mg/kg, equivalent to 0.01 molar concentrations in blood",about 30%
same,Fibrinogen (%),"FIBRINOGEN; mean of two experiments, control 205",125%
Sodium bisulfite,reduces accumulation of platelet thrombus at the damaged vessel wall,[1]; intravenous injection 72.80 milligram per kilogram,The findings indicate that the active agent reduces accumulation of platelet thrombus at the damaged vessel wall by 70%.
same,Platelet Accumulation II. at normal vessel wall %,"[1]; intravenous injection 72.80 milligram per kilogram, rabbits A and B, control 0.03± 0.02",0.08%
same,Platelet Accumulation II. at normal vessel wall cpm/gm,"[1]; intravenous injection 72.80 milligram per kilogram, rabbits A and B, control 72,140± 39,040","98,611 cpm/gm and 83,066 cpm/gm"
same,Platelet Accumulation I. at damaged vessel wall cpm/gm,"[1]; intravenous injection 72.80 milligram per kilogram, rabbits A and B, count per minute per gram dry weight of tissue, control 1,167,820± 21,310","133,986 cpm/gm and 146,630 cpm/gm"
same,Platelet Accumulation I. at damaged vessel wall %,"[1]; intravenous injection 72.80 milligram per kilogram, rabbits A and B, percentage of injected radioactivity per gram dry weight of tissue, control 0.44± 0.08",0.11% and 0.15%
same,FIBRINOGEN (mg%),FIBRINOGEN; 0.01 mg/ml,222 mg%
same,FIBRINOGEN (mg%),FIBRINOGEN; 0.05 mg/ml,228 mg%
same,FIBRINOGEN (mg%),FIBRINOGEN; 0.1 mg/ml,217 mg%
same,FIBRINOGEN (mg%),FIBRINOGEN; 0.5 mg/ml,190 mg%
same,FIBRINOGEN (mg%),FIBRINOGEN; 1.0 mg/ml,185 mg%
same,FIBRINOGEN (mg%),FIBRINOGEN; 5.0 mg/ml,130 mg%
same,effect on Factor II,PROTHROMBIN,mildly affected
same,PROTHROMBIN (%),PROTHROMBIN; 0.01 mg/ml,79%
same,PROTHROMBIN (%),PROTHROMBIN; 0.05 mg/ml,80%
same,PROTHROMBIN (%),PROTHROMBIN; 0.1 mg/ml,72%
same,PROTHROMBIN (%),PROTHROMBIN; 0.5 mg/ml,40%
same,PROTHROMBIN (%),PROTHROMBIN; 1.0 mg/ml,26%
same,PROTHROMBIN (%),PROTHROMBIN; 5.0 mg/ml,5%
same,effect on Factor VIII,F VIII,mildly affected
same,F VIII (%),F VIII; 0.01 mg/ml,62%
same,F VIII (%),F VIII; 0.05 mg/ml,68%
same,F VIII (%),F VIII; 0.1 mg/ml,55%
same,F VIII (%),F VIII; 0.5 mg/ml,58%
same,F VIII (%),F VIII; 1.0 mg/ml,29%
same,F VIII (%),F VIII; 5.0 mg/ml,11%
same,PT and PTT (effect in words),"rat plasma; rat plasma in vitro, 0.5 mg/ml",significantly prolong
same,blood coagulation factors,"rat plasma; rat plasma, compared with human plasma",not as sensitive
same,Case IV: blood cholesterol value,"[2]; after about 5 years of medication, before between 200 and 220 mg %",about 144 mg %
same,"Case IV: hypertension, arthritis, arrithmia, hemorrhoids, dispepsia, cyanotic fingers and toes, malaise, lassitude","[2]; man, Solutions A, B, C, or D orally, up to 20 drops per meal, within 2-3 months",all of the above identified conditions improved (except for diabetes)
same,coagulation of stored blood samples,blood,have not coagulated
